Measured values as given in publication PMC8831520, “Small molecule SWELL1 complex induction improves glycemic control and nonalcoholic fatty liver disease in murine Type 2 diabetes” (Nature Communications, 2022).

System: T1, SWELL1 protein in 3T3-F442A adipocytes
T1 construct: host or cells: 3T3-F442A preadipocytes and differentiated adipocytes (wild type)
Assay: SWELL1 protein western blot in adipocytes
Format: cell-based, murine
Conditions: for SWELL1 protein level relative to vehicle-treated controls: 10 and 1 μM, 4 days, then 6 h serum starving
Method: In the case of 3T3-F442A adipocytes, the WT and KO cells were treated with either vehicle (DMSO), 1 or 10 µM SN-40X (after 7–11 days of differentiation) for 96 h and then stimulated with 0 and 10 nM insulin/serum-containing media with vehicle (DMSO) or SN-40X for 15 min for SWELL1 detection. […] To simulate glucolipotoxicity, 8 mM sodium palmitate was dissolved in 18.4% fatty-acid free BSA at 37 °C in DMEM medium with 25 mM glucose to obtain a conjugation ratio of 1:3 palmitate:BSA[80].
Adipocytes were washed twice in ice-cold phosphate buffer saline and lysed in RIPA buffer (150 mM NaCl, 20 mM HEPES, 1% NP-40, 5 mM EDTA, pH 7.4) with proteinase/phosphatase inhibitors (Roche). The cell lysate was further sonicated in 10 s cycle intervals 2–3 times and centrifuged at 18,407×g for 30 min at 4 °C and repeated one more time to remove the excess fat. The supernatant was collected and further estimated for protein concentration using a DC protein assay kit (Bio-Rad). Fat and liver tissues were homogenized and suspended in RIPA buffer with inhibitors and further processed in a similar fashion as described above. HUVECs were also prepared in a similar fashion except the lysates were spun only once to remove the cells debris to obtain the clear supernatant. For islets, either human or mouse islets were washed twice with phosphate buffer saline (PBS) and lysed using RIPA buffer containing protease and phosphatase inhibitors. The lysate was further clarified by freezing in liquid nitrogen for about 10 s for three cycles. The supernatant was collected from the whole lysate centrifuged at 16,260×g for 20 min at 4 °C. […] For soleus muscle, the tissue was homogenized in a Bullet Blender homogenizer (Speed-9, Time-3 mins) in 8 volumes of ice-cold muscle homogenization buffer (50 mM Tris, 25 mM NaCl, 0.2% Nonidet P-40, 5 mM EGTA, 2.5 mM EDTA, 20 mM NaF, 20 mM Na4P2O7·10H2O, 2 mM Na3VO4, pH 7.4) supplemented with protease/phosphatase inhibitor (Roche). The homogenized lysate was centrifuged two times at 18,500×g for 20 min at 4 °C and supernatant was collected for protein estimation. Protein samples were further prepared by boiling in 2X or 4X Laemmli buffer. Approximately 10–60 µg of total protein was loaded in 4–15% gradient gel (Bio-Rad) for separation and protein transfer was carried out onto the PVDF membranes (Bio-Rad). Membranes were blocked in 5% BSA (or 5% milk for SWELL1) in TBST buffer (0.2 M Tris, 1.37 M NaCl, 0.2% Tween-20, pH 7.4) for 1 h and incubated with appropriate primary antibodies (5% BSA or milk) overnight at 4 °C. […] The images were further analyzed for band intensities using ImageJ software. […]

SMILES | SWELL1 protein level relative to vehicle-treated controls | SWELL1 protein expression (3T3-F442A adipocytes, 10 µM, 96 h) [fold control expression]
CCCCC1(C2CCCC2)Cc2cc(OCC(=O)O)c(Cl)c(Cl)c2C1=O (stereo not drawn) [Inactive 1, 2-((2-butyl-6,7-dichloro-2-cyclopentyl-1-oxo-2,3-dihydro-1H-inden-5-yl)oxy)acetic acid] | did not significantly increase | –
CCCCC1(C2CCCC2)Cc2cc(OCCCC(=O)O)c(Cl)c(Cl)c2C1=O (stereo not drawn) [SN-401, 4-((2-butyl-6,7-dichloro-2-cyclopentyl-1-oxo-2,3-dihydro-1H-inden-5-yl)oxy)butanoic acid] | – | 1.5
CCCCC1(C2CCCC2)Cc2cc(OCCCCCC(=O)O)c(Cl)c(Cl)c2C1=O (stereo not drawn) [SN-406, 6-((2-butyl-6,7-dichloro-2-cyclopentyl-1-oxo-2,3-dihydro-1H-inden-5-yl)oxy)hexanoic acid] | 1.5–2.1 fold | –
